# Results reported in paper PMC10444021, “Design and synthesis of new spirooxindole candidates and their selenium nanoparticles as potential dual Topo I/II inhibitors, DNA intercalators, and apoptotic inducers” (Journal of Enzyme Inhibition and Medicinal Chemistry, 2023).
# Assays:
# DNA = DNA intercalation assay (linear DNA formation); type: biochemical; conditions: even at low concentrations; gel
# Description: The reported procedure by Atwal et al. was our guide to test the DNA intercalating ability of our candidates[56] (Supporting information).
# The ability of the designed members to intercalate onto the DNA molecules and increase the levels of Topo I–DNA as well as Topo II-DNA cleavage complexes by stabilising the enzymes–DNA covalent complexes were also assayed. Thus, the amount of linear DNA formed by compounds 5b and 7d, in addition to their nanoforms 5b NPs and 7d NPs, was measured. […] As so, the designed congeners were then considered promising DNA intercalating members (Figure 11).
# HepG2 = assay: MTT cytotoxicity, HepG2; type: cell-based; conditions: Homo sapiens, mean ± SD
# Description: (§1) The cytotoxic activities of the constructed members were assessed via the reported MTT method[49–52] (Supporting information).
# (§2) The cytotoxic screening was performed using the MTT assay. […] Besides, the HCT-116 one was sensitive to only two samples, while the MCF7 was sensitive to one sample only. Two standard cytotoxic drugs: Dox and 5-fluorouracil (5-FU) were also applied on the same used cancer cell lines as references.
# Topo I = target: T1, Topo I (Homo sapiens, UniProt P11387); assay: Topo I inhibitory assay; type: biochemical
# T1 sequence (P11387 1-765): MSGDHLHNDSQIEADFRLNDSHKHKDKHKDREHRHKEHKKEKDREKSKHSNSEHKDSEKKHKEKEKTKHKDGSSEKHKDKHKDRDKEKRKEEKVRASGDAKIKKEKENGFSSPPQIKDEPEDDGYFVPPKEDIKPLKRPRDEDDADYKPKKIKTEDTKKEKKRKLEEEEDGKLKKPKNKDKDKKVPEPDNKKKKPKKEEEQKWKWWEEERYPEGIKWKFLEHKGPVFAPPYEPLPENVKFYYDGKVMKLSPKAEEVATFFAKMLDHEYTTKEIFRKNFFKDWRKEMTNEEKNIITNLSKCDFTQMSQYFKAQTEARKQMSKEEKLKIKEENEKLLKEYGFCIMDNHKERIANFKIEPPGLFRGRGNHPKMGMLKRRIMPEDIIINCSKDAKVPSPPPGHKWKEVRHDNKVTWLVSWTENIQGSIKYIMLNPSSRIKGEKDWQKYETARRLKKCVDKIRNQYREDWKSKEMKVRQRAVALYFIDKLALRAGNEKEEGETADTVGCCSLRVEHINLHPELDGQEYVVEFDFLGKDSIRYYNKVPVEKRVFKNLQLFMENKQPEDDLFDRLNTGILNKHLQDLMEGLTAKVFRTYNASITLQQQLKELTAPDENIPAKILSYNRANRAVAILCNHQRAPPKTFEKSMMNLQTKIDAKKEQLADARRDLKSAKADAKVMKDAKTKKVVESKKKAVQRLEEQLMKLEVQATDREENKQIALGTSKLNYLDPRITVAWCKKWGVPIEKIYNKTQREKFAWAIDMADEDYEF
# Description: (§3) The tested members were subjected to Topo I inhibitory activity evaluation using the previously reported method. While the Topo II inhibitory assay was done according to the method described by Patra et al.[55] (Supporting information).
# (§4) Thus, compounds 5b and 7d in addition to their nano complexes 5b NPs and 7d NPs were evaluated for their enzyme inhibitory effects.
# Topo II = Topo II inhibitory assay; type: biochemical
# Description: as §3, §4
# Caco-2 = assay: MTT cytotoxicity, Caco-2; type: cell-based; conditions: Homo sapiens, mean ± SD
# Description: as §1, §2
# HCT-116 = assay: MTT cytotoxicity, HCT-116; type: cell-based; conditions: Homo sapiens, mean ± SD
# Description: as §1, §2
# [1] = Cytotoxic effects on normal bone marrow cells; type: cell-based, mice; conditions: mouse, mean ± SD
# Description: as §1
# The dose–response curves for the nanoform on each cell line are shown in the Supporting information, and the respective IC50s are shown in Table 3. The most promising cytotoxic samples were further investigated for their cytotoxic effects on normal mice bone marrow cells. The overall trending results were increasing the proliferation of the bone marrow cells at high concentrations of the samples, especially the 5b NPs nanoform sample, which reached up to 200% compared to the untreated cells. The dose–response curves on the bone marrow cells are represented in the Supporting information.
# MCF7 = assay: MTT cytotoxicity, MCF7; type: cell-based; conditions: Homo sapiens, mean ± SD
# Description: as §1, §2
# A-549 = assay: MTT cytotoxicity, A-549; type: cell-based; conditions: Homo sapiens, A549, mean ± SD
# Description: as §1, §2
IC50 (Topo I) [nM],IC50 (Topo II) [nM],melting point [°C],SMILES,formation of linear DNA (DNA),IC50 (HepG2) [µg/mL],IC50 (Caco-2) [µg/mL],IC50 (HCT-116) [µg/mL],IC50 [1] [µg/mL],IC50 (MCF7) [µg/mL],IC50 (A-549) [µg/mL]
651,4470,,"CCn1c2c(c(=O)[nH]c1=O)C1(C(=O)Nc3ccc([N+](=O)[O-])cc31)c1c(n(CC)c(=O)[nH]c1=O)N2 [Compound 5b, 1′,9′-Diethyl-5-nitro-1′H-spiro[indoline-3,5′-pyrido[2,3-d:6,5-d′]dipyrimidine]-2,2′,4′,6′,8′(3′H,7′H,9′H,10′H)-pentaone]",considerable formation of linear DNA,114 ± 10.1,35.2 ± 4.1,,,,
,,,"O=C1Nc2ccc(Cl)cc2C12c1c([nH]c(=O)[nH]c1=O)Nc1[nH]c(=O)[nH]c(=O)c12 [Compound 7e, 5-Chloro-1′H-spiro[indoline-3,5′-pyrido[2,3-d:6,5-d′]dipyrimidine]-2,2′,4′,6′,8′(3′H,7′H,-9′H,10′H)-pentaone]",,89.7 ± 6.5,472 ± 23.6,435 ± 39.5,,,
,,,"COc1cccc2c1C(=O)c1c(O)c3c(c(O)c1C2=O)C[C@@](O)(C(=O)CO)C[C@@H]3O[C@H]1C[C@H](N)[C@H](O)[C@H](C)O1 [Dox, doxorubicin, reference compound]",,0.3 ± 0.01,3.7 ± 0.2,1.1 ± 0.1,0.3 ± 0.01,5.9 ± 0.5,0.04 ± 0.003
,,> 300,"O=C1Nc2ccc([N+](=O)[O-])cc2C12c1c(n(Cc3ccccc3)c(=O)[nH]c1=O)Nc1c2c(=O)[nH]c(=O)n1Cc1ccccc1 [Compound 5d, 1′,9′-Dibenzyl-5-nitro-1′H-spiro[indoline-3,5′-pyrido[2,3-d:6,5-d′]dipyrimidine]-2,2′,4′,6′,8′(3′H,7′H,9′H,10′H)-pentaone]",,422 ± 22.8,108 ± 10,,,,279 ± 18.9
,,> 300,"CCn1c2c(c(=O)[nH]c1=O)C1(C(=O)Nc3ccc(Cl)cc31)c1c(n(CC)c(=O)[nH]c1=O)N2 [Compound 7b, 5-Chloro-1′,9′-diethyl-1′H-spiro[indoline-3,5′-pyrido[2,3-d:6,5-d′]dipyrimidine]-2,2′,4′, 6′,8′(3′H,7′H,9′H,10′H)-pentaone]",,,,,,171 ± 22.8,
,,> 300,"Cn1c2c(c(=O)[nH]c1=S)C1(C(=O)Nc3ccc([N+](=O)[O-])cc31)c1c(n(C)c(=S)[nH]c1=O)N2 [Compound 5c, 1′,9′-Dimethyl-5-nitro-2′,8′-dithioxo-2′,3′,8′,9′-tetrahydro-1′H-spiro[indoline-3,5′-pyrido[2,3-d:6,5-d′]dipyrimidine]-2,4′,6′(7′H,10′H)-trione]",,250 ± 19.3,247 ± 12.5,186 ± 19.4,,,525 ± 50.6
,,> 300,"O=C1Nc2ccc([N+](=O)[O-])cc2C12c1c([nH]c(=O)[nH]c1=O)Nc1[nH]c(=O)[nH]c(=O)c12 [Compound 5e, 5-Nitro-1′H-spiro[indoline-3,5′-pyrido[2,3-d:6,5-d′]dipyrimidine]-2,2′,4′,6′,8′(3′H,7′H,9′H,10′H)-pentaone]",,147 ± 10.5,233 ± 19.2,,,,
,,> 300,"CCn1c2c(c(=O)[nH]c1=O)C1(C(=O)Nc3ccccc31)c1c(n(CC)c(=O)[nH]c1=O)N2 [Compound 3, 1′,9′-Diethyl-1′H-spiro[indoline-3,5′-pyrido[2,3-d:6,5-d′]dipyrimidine]-2,2′,4′,6′,8′(3′H,7′H,9′H,10′H)-pentaone]",,,259 ± 9.4,,,,291 ± 16.4
,,> 300,"Cn1c2c(c(=O)[nH]c1=S)C1(C(=O)Nc3ccc(Cl)cc31)c1c(n(C)c(=S)[nH]c1=O)N2 [Compound 7c, 5-Chloro-1′,9′-dimethyl-2′,8′-dithioxo-2′,3′,8′,9′-tetrahydro-1′H-spiro[indoline-3,5′-pyrido [2,3-d:6,5-d′]dipyrimidine]-2,4′,6′(7′H,10′H)-trione]",,,,,,,
,,,"O=c1[nH]cc(F)c(=O)[nH]1 [Compound 5-FU, 5-fluorouracil, reference compound]",,103 ± 9.8,4.4 ± 0.3,76.3 ± 6.8,103 ± 9.8,39.3 ± 2.9,1.1 ± 0.1
,,> 300,"Cn1c2c(c(=O)[nH]c1=O)C1(C(=O)Nc3ccc(F)cc31)c1c(n(C)c(=O)[nH]c1=O)N2 [Compound 9b, 5-Fluoro-1′,9′-dimethyl-1′H-spiro[indoline-3,5′-pyrido[2,3-d:6,5-d′]dipyrimidine]-2,2′,4′,6′,8′(3′H,7′H,9′H,10′H)-pentaone]",,86.4 ± 7.4,492 ± 40.4,,,,293 ± 15.4
,,,"Cn1c2c(c(=O)[nH]c1=O)C1(C(=O)Nc3ccc(Cl)cc31)c1c(n(C)c(=O)[nH]c1=O)N2 [Compound 7a, 5-Chloro-1′,9′-dimethyl-1′H-spiro[indoline-3,5′-pyrido[2,3-d:6,5-d′]dipyrimidine]-2,2′,4′, 6′,8′(3′H,7′H,9′H,10′H)-pentaone]",,120 ± 9.2,113 ± 10.4,,,,50.1 ± 5.9
419,2660,,"O=C1Nc2ccc(Cl)cc2C12c1c(n(Cc3ccccc3)c(=O)[nH]c1=O)Nc1c2c(=O)[nH]c(=O)n1Cc1ccccc1 [Compound 7d, 1′,9′-Dibenzyl-5-chloro-1′H-spiro[indoline-3,5′-pyrido[2,3-d:6,5-d′]dipyrimidine]-2,2′,4′, 6′,8′(3′H,7′H,9′H,10′H)-pentaone]",considerable formation of linear DNA,91.4 ± 11.3,,,,,329 ± 12.5
,,> 300,"Cn1c2c(c(=O)[nH]c1=O)C1(C(=O)Nc3ccc([N+](=O)[O-])cc31)c1c(n(C)c(=O)[nH]c1=O)N2 [Compound 5a, 1′,9′-Dimethyl-5-nitro-1′H-spiro[indoline-3,5′-pyrido[2,3-d:6,5-d′]dipyrimidine]-2,2′,4′,6′,8′(3′H,7′H,9′H,10′H)-pentaone]",,563 ± 25.5,207 ± 19.4,,,,
